1 compound from ChEMBL document CHEMBL5126526, “Non-nucleoside structured compounds with antiviral activity-past 10 years (2010-2020)” (2022) can be followed below.

In the test the test system is Influenza A virus. As to the kind of experiment: Antiviral activity against influenza A virus (A/California/04/2009 (H1N1pdm)) infected in BALB/c mouse assessed as fold reduction in viral titers in lung homogenates at 20 mg/kg per day, po BID treated 2 hrs prior to viral infection followed by compound redosing at 12 hrs for 6 days. In kind it is functional.

For `O=C(O)[C@H]1C2CCC(CC2)[C@@H]1Nc1nc(-c2c[nH]c3ncc(F)cc23)ncc1F` [PIMODIVIR], the “fold change (FC)” value is 100.
